Test results as given in ChEMBL document CHEMBL1201862, “PubChem BioAssay data set” (2004).
Calls of active or inactive are those of the source.

Tests used:
[1] = StAR promoter reporter inhibition counter-screen, dose response, counter-screen for LRH-1 inverse agonist project, cell-based, luminescence, luciferase reporter (AID 651969); format: functional
Steroidogenic factor 1 = Steroidogenic factor 1 (Homo sapiens, UniProt Q13285); assay: Counterscreen for inverse agonists of the liver receptor homolog-1 (LRH-1; NR5A2): Luminescence-based cell-based high throughput dose response assay to identify inverse agonists of the Steroidogenic Factor 1 Nuclear Receptor (SF1; NR5A1).; format: functional
Chain of Steroidogenic factor 1 (Q13285 whole entry): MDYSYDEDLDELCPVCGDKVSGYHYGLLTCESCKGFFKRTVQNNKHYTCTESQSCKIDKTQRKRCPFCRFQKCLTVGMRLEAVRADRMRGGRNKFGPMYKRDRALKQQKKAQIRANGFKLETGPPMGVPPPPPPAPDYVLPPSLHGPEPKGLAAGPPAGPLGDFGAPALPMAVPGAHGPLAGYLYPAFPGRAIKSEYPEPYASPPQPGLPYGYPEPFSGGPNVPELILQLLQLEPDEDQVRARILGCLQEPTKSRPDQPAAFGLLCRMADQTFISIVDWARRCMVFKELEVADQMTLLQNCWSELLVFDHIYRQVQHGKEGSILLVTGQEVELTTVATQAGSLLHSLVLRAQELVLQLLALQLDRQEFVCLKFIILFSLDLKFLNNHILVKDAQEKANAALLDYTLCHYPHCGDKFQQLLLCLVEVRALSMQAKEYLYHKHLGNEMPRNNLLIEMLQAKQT

[2] = molecular target: Nuclear receptor subfamily 5 group A member 2 (Homo sapiens, UniProt O00482); format: functional, cell-based;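 also: HEK293T cells transfected with LRH-1 and a StAR promoter luciferase reporter; potency for inhibitors that lower LRH-1 driven reporter light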
Chain of Nuclear receptor subfamily 5 group A member 2 (O00482 whole entry, the tested form may be a part): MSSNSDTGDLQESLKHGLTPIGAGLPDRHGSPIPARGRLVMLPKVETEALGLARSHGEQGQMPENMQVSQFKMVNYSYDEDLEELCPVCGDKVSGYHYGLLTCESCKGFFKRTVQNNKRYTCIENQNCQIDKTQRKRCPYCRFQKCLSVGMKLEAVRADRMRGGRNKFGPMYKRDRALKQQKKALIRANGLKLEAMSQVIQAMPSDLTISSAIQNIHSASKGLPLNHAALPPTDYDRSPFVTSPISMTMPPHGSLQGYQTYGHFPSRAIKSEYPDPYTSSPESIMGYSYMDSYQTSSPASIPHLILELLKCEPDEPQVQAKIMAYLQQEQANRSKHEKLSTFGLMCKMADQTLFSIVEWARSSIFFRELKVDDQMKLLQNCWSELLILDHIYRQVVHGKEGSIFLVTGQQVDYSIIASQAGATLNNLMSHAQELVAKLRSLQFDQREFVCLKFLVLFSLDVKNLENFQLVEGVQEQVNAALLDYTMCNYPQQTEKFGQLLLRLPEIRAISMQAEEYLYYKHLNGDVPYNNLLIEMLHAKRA

[3] = ARNT/TACC3 interaction disruptors, potency, confirmation, biochemical, AlphaScreen, cherry-picked samples (AID 651703); format: functional, Homo sapiens;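 also: His-tagged ARNT PAS-B domain paired with GST-TACC3 E629A dimer coactivator fragment; potency of inhibitors that break up the complex and lower AlphaScreen signal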
[4] = molecular target: 5-hydroxytryptamine receptor 2A (Mus musculus, UniProt P35363); format: functional, cell-based;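 also: CHO-K1 cells with tagged receptor and beta-arrestin; agonist potency measured as compound-induced activation of the receptor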
Mu-type opioid receptor = Mu-type opioid receptor (Homo sapiens, UniProt P35372); format: functional, cell-based;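 also: U2OS cells with beta-arrestin recruitment to OPRM1 by beta-gal complementation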
Chain of Mu-type opioid receptor (P35372 whole entry): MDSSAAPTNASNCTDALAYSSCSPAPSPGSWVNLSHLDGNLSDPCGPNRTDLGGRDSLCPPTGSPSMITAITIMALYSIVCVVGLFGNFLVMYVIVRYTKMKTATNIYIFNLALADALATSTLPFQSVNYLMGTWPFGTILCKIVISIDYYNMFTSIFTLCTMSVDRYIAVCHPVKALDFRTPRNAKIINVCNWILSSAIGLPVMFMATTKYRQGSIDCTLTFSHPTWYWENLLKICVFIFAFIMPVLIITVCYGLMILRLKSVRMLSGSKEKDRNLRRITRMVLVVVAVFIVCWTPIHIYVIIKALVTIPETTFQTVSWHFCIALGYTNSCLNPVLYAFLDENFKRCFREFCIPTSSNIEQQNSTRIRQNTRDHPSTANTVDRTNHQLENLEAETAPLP

[5] = CFTR ΔF508 corrector activity in bronchial cells, dose response, human bronchial epithelial cells, plate reader, cherry-pick, two tests (AID 743267); format: functional, cell-based
[6] = molecular target: G-protein coupled receptor 55 (Homo sapiens, UniProt Q9Y2T6); assay: GPR55 agonists via beta-arrestin recruitment, primary screen, imaging, U2OS cells, beta-arrestin-GFP redistribution (AID 1961); format: functional
[7] = Fluorescence-based cell-based high throughput dose response assay for inhibitors of the interaction of nucleotide-binding oligomerization domain containing 2 (NOD2) and the receptor-interacting serine-threonine kinase 2 (RIPK2).; format: functional; settings: Homo sapiens
[8] = growth suppression of PTEN-null colon cells, dose response, cell-based, HCT116 PTEN knockout (AID 1047); format: functional;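 also: HCT116 colon tumor cells with PTEN knocked out; cells exposed to compound for 60 hours before readout; potency for loss of cell viability measured by luminescence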
Beta Lactamase = Beta Lactamase (Pseudomonas aeruginosa, UniProt Q932Y6); assay: beta-lactamase reporter inhibitor potency, dose response, artefact control for NOD2-RIPK2 interaction inhibitor project, BLA reporter cells, FRET fluorescence (AID 651552); format: functional, cell-based
Chain of Beta Lactamase (Q932Y6 whole entry): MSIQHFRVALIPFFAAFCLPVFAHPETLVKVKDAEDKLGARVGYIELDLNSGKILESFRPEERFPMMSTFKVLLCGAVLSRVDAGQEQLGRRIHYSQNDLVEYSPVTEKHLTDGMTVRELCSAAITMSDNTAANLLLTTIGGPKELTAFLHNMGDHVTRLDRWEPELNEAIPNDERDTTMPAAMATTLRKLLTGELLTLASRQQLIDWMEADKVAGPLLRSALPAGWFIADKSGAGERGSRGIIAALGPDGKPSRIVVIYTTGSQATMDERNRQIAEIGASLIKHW

Vero = assay: cells; format: functional; settings: Chlorocebus sabaeus
[9] = growth suppression of beta-catenin-knockout colon cells, dose response, cell-based, HCT116, human colon tumor (AID 1045); format: functional;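 also: HCT116 colon tumor cells with beta catenin knocked out; cells exposed to compound for 60 hours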
[10] = molecular target: T1, Carboxy-terminal domain RNA polymerase II polypeptide A small phosphatase 1 (Homo sapiens, UniProt Q9GZU7); assay: inhibitors of CTDSP1, concentration-response testing, biochemical assay, absorbance-based, actives from ultra-high-throughput screening (AID 540297); format: functional
T1 sequence (Q9GZU7 whole entry): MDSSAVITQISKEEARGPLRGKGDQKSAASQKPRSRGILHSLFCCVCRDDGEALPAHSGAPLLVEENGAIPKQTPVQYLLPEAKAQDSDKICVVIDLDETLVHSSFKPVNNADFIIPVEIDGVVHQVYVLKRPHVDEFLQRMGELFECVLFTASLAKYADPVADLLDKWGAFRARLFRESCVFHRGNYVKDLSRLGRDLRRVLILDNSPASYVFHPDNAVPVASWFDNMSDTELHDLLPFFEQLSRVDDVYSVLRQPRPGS

[11] = molecular target: Low molecular weight phosphotyrosine protein phosphatase (Homo sapiens, UniProt P24666); format: functional; settings: read-out: IC50_Mean
Beta-lactamase [12] = molecular target: Beta-lactamase (Salmonella choleraesuis (strain SC-B67), UniProt Q5J463); assay: Epi-absorbance-based counterscreen for selective VIM-2 inhibitors: dose response biochemical high throughput screening assay to identify inhibitors of TEM-1 serine-beta-lactamase.
Chain of Beta-lactamase (Salmonella choleraesuis (strain SC-B67), UniProt Q5J463) (Q5J463 whole entry): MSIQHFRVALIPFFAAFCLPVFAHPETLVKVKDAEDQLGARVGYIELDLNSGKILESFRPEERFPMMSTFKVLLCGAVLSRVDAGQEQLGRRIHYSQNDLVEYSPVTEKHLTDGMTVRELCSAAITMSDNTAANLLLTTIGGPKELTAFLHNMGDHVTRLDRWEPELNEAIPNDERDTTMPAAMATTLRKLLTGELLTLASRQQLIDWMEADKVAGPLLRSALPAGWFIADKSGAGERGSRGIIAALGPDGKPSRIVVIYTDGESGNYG

Beta-lactamase [13] = molecular target: T2, Beta-lactamase (Pseudomonas aeruginosa, UniProt Q79MP6); assay: IMP-1 metallo-beta-lactamase inhibitors, dose response, selectivity assay for VIM-2 inhibitor project, biochemical, epi-absorbance (AID 1920)
T2 sequence (Q79MP6 whole entry): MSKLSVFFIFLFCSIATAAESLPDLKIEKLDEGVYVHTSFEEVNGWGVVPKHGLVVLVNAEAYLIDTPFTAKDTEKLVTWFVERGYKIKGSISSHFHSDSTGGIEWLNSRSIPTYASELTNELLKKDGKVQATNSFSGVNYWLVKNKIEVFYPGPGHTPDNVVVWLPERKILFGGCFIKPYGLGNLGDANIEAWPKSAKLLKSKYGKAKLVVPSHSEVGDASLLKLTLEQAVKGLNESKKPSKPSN

Beta-lactamase [14] = molecular target: T2, Beta-lactamase; assay: […] counterscreen for selective VIM-2 inhibitors: dose response biochemical high throughput screening assay to identify inhibitors of IMP-1 metallo-beta-lactamase.
[15] = molecular target: Mitochondrial peptide methionine sulfoxide reductase (Bos taurus, UniProt P54149); format: functional;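 also: absorbance read-out, biochemical high-throughput dose-response screen for MsrA inhibitors, confirmatory; recombinant bovine MsrA coupled to E. coli TrxB with NADPH and selenocystamine; potency is for inhibitors of MsrA activity on DMSO substrate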
Chain of Mitochondrial peptide methionine sulfoxide reductase (P54149 whole entry): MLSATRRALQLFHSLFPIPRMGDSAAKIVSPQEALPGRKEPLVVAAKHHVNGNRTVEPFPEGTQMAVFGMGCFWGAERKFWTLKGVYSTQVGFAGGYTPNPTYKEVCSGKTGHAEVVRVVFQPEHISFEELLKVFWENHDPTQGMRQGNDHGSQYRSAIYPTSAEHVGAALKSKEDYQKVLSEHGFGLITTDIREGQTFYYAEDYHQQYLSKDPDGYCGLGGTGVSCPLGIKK

[16] = molecular target: Tyrosine-protein phosphatase non-receptor type 11 (Homo sapiens, UniProt Q06124); assay: SHP2 phosphatase inhibition, dose response, selectivity assay for STEP inhibitor project, biochemical (AID 602367); format: functional; settings: read-out: IC50_Mean
Chain of Tyrosine-protein phosphatase non-receptor type 11 (Q06124 whole entry): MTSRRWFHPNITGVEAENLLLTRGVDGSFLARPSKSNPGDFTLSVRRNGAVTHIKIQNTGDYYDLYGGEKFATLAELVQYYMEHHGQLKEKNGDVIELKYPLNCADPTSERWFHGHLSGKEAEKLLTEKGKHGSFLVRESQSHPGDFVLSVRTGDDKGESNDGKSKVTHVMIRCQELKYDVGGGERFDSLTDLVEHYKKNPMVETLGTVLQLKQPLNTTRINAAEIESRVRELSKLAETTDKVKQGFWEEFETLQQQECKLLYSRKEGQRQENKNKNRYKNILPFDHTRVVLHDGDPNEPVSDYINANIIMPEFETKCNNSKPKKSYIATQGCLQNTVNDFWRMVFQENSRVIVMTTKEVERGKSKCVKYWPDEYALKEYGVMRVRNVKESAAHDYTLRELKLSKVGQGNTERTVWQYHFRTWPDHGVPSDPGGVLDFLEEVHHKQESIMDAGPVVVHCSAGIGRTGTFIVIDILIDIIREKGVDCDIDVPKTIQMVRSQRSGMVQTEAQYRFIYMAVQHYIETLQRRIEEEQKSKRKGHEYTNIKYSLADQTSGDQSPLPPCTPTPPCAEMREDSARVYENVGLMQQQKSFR

Albumin = Albumin (Bos taurus, UniProt P02769); assay: Counterscreen for inhibitors of T-cell receptor (TCR)-CD3 interaction: Fluorescence-based biochemical high throughput dose response assay to identify inhibitors of T-cell receptor (TCR)-CD3 interaction using a TAMRA-labeled BSA probe.; format: functional
[17] = molecular target: DNA (cytosine-5)-methyltransferase 1 (Homo sapiens, UniProt P26358); assay: DNMT1 methyltransferase inhibitors, confirmation, biochemical, fluorescent molecular beacon (AID 602386); format: functional
Chain of DNA (cytosine-5)-methyltransferase 1 (P26358 whole entry): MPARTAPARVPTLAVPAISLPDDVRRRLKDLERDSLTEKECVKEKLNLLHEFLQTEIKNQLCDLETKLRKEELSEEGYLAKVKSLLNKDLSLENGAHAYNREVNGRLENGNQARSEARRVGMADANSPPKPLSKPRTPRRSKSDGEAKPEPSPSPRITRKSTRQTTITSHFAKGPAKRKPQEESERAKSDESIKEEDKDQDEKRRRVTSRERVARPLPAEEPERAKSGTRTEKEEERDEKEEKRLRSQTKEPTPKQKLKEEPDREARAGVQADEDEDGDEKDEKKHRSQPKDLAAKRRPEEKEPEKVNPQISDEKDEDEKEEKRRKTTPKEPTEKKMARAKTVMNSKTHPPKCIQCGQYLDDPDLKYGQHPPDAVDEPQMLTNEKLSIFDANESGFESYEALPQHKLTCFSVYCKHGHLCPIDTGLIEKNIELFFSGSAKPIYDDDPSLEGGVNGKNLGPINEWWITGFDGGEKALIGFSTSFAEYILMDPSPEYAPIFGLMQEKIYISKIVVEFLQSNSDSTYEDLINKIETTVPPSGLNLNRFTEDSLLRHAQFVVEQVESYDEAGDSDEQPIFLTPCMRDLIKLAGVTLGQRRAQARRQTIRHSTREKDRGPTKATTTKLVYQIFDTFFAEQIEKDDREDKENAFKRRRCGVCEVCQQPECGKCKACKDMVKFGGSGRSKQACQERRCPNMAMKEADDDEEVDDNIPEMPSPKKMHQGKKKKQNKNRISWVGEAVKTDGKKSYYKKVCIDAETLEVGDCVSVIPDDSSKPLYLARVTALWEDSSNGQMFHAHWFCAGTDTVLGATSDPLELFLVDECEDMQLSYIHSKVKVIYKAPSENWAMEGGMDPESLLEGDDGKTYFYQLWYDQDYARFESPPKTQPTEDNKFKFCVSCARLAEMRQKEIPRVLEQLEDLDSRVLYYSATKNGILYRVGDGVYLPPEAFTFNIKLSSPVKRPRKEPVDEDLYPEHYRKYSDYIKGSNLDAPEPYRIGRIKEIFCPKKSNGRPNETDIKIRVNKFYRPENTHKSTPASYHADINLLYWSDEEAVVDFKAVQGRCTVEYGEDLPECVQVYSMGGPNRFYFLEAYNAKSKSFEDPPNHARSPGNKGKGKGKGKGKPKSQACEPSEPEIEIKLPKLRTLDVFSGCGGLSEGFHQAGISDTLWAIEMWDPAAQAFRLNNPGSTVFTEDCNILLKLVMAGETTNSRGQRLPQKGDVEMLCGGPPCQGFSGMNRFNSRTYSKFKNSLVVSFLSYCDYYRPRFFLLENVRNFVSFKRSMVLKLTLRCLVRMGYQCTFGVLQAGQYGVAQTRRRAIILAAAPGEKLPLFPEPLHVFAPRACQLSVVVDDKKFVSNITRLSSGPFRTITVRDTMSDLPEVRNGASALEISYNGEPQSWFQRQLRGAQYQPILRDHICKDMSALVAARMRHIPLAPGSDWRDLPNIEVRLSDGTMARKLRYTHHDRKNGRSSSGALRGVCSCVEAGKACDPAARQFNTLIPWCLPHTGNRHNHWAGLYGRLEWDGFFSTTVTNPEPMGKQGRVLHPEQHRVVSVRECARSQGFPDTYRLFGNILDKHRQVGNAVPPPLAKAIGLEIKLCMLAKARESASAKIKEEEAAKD

[18] = molecular target: T3, Small ubiquitin-related modifier 1 (Homo sapiens, UniProt P63165); assay: inhibitors of SUMO1 peptide binding, dose response, biochemical, fluorescence polarization, uHTS hits (AID 624382); format: functional; settings: read-out: IC50_Mean
T3 sequence (P63165 whole entry): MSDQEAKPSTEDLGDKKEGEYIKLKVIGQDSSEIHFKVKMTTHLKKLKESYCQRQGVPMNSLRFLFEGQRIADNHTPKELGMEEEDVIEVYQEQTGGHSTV

[19] = molecular target: Dual specificity protein phosphatase 3 (Homo sapiens, UniProt P51452); assay: VHR phosphatase inhibition, dose response, selectivity assay for STEP inhibitor project, biochemical (AID 602374); format: functional; settings: read-out: IC50_Mean
Chain of Dual specificity protein phosphatase 3 (P51452 whole entry): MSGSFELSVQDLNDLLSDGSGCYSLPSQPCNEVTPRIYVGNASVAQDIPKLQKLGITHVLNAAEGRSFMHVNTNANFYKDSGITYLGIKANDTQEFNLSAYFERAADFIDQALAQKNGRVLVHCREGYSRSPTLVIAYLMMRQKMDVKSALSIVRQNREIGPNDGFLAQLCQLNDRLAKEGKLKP

[20] = molecular target: Tyrosine-protein phosphatase non-receptor type 5 (Homo sapiens, UniProt P54829); assay: STEP phosphatase inhibitors, confirmation, biochemical, fluorescence intensity, uHTS hits (AID 602372); format: functional; settings: read-out: IC50_Mean
[21] = molecular target: T3, Small ubiquitin-related modifier 1; assay: inhibitors of SUMO1 partner interactions, dose response, biochemical, FRET (AID 624383); format: functional; settings: read-out: IC50_Mean
[22] = miR-122 activators in hepatoma reporter cells, dose response, cell-based, Huh7 psiCHECK-miR122, Renilla luciferase, cherry-picked (AID 651956); format: functional;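 also: huh7 hepatoma cells stably carrying a psiCHECK-2 miR-122 sensor plasmid; renilla luciferase signal reporting endogenous miR-122 activity after 48 h compound exposure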
[23] = inhibitors of TNFa-stimulated NF-kB luciferase reporter, dose response, selectivity assay for EBV LMP1 NF-kB inhibitor project, HEK293 LMP1 reporter cells, dry powder, set 2 (AID 624369); format: functional

With `N=c1sccn1CC(=O)Nc1ccc(S(N)(=O)=O)cc1` as the molecule, how does the IC50 [1] read?
Its IC50 is 35.9 µM (inactive).

And the IC50 (Steroidogenic factor 1)?
Its IC50 is 3.81 µM (active).

And the IC50 [2]?
The IC50 was 2.32 µM (active).

For `Cc1cccc(NC(=O)C(C)N2CC=C(c3ccccc3)CC2)c1` (stereo not drawn), which AC50 [3] is on record?
The AC50 was 88.4 µM (active).

What does the source list for `OC(COc1ccc2cc(Br)ccc2c1)CN1CCN(c2ccccn2)CC1` (stereo not drawn)?
EC50 [4]: 0.903 µM (active); EC50 (Mu-type opioid receptor): 92.5 µM (inactive)

Which AC50 [5] does the source give for `CCOC(=O)c1[nH]c(C)c(C(=O)C2=C(O)C(=O)N(CCCN3CCOCC3)C2c2cccs2)c1C` (stereo not drawn) here?
Its AC50 is 19.4 µM (active).

For `N#Cc1ccccc1Cn1cc(/C=C/[N+](=O)[O-])c2ccccc21`, which EC50 [6] is on record?
Its EC50 is 3.11 µM (active).

What about the IC50 [7] of the same molecule?
Its IC50 is 10.3 µM (inactive).

What about the EC50 [8] of the same molecule?
The EC50 was 17.8 µM (active).

What about the IC50 (Beta Lactamase) of the same molecule?
The IC50 was 24.4 µM (inactive).

What about the CC50 (Vero) of the same molecule?
Its CC50 is 8.92 µM (active).

And the EC50 [9]?
Its EC50 is 18 µM (active).

With `O=C(Nc1nc2ccsc2c(=O)s1)c1ccc(Cl)cc1` as the molecule, how does the IC50 [10] read?
The IC50 was 5.43 µM (active).

And the IC50 [11]?
The IC50 was 39.3 µM (inactive).

Which IC50 (Beta-lactamase [12]) does the source give for `O=C(O)c1ccccc1C(=O)c1cccc2ccccc12` here?
Its IC50 is > 59.6 µM (inactive).

What about the IC50 (Beta-lactamase [13]) of the same molecule?
Its IC50 is > 59.6 µM (inactive).

What about the IC50 (Beta-lactamase [14]) of the same molecule?
The IC50 was > 59.6 µM (inactive).

Which IC50 [15] does the source give for `O=C(C(=O)c1ccc(O)c(O)c1)c1ccc(O)c(O)c1` here?
Its IC50 is 112 µM (inactive).

For `O=C(N/N=C/c1ccoc1)c1cc(O)cc(O)c1`, which IC50 [16] is on record?
The IC50 was 0.952 µM (active).

What about the IC50 (Albumin) of the same molecule?
The IC50 was > 94 µM (inactive).

And the IC50 [17]?
Its IC50 is 7.09 µM (active).

And the IC50 [18]?
Its IC50 is > 66.6 µM (inactive).

What about the IC50 [19] of the same molecule?
Its IC50 is 1.55 µM (active).

And the IC50 [20]?
The IC50 was 33.9 µM (inactive).

And the IC50 [21]?
Its IC50 is 12.4 µM (active).

With `CC(C)c1ccc(NC(=O)C[C@H]2CC[C@H]3[C@@H](COc4ccc(NC(=O)Nc5ccc(F)c(F)c5)cc4C(=O)N3C)O2)cc1` as the molecule, how does the AC50 [22] read?
The AC50 was 14.3 µM (active).

And the AbsAC35 [23]?
Its AbsAC35 is 91.94 µM.
